# Reference: patent publication US12263171B2, “7-, 8-, and 10-substituted amino triazolo quinazoline derivatives as adenosine receptor antagonists, pharmaceutical compositions and their use” (Merck Sharp & Dohme LLC, priority 2018, dated 2025)
# How the values were obtained:
# [1] = target: human A2b adenosine receptor (Homo sapiens (Human), UniProt P29275); assay: A2B antagonism in cAMP cell-based assay (LANCE cAMP, HEK293 cells, 600 nM adenosine); conditions: for IC50: values marked *: cAMP cell-based assay; for *A2B cAMP % inh. @ 10000 nM: marked *
# Procedure: Measurement of A2A and A2B Antagonism in cAMP Cell-Based Assay
# All subsequent liquid additions were performed using a multichannel pipettor. […] After this time 5 μL of either 300 nM or 600 nM adenosine (Sigma Cat. No. A9251) for A2A and A2B respectively was added and incubated for 30 minutes at 37° C. and 5% CO2 in a humidified environment. At this time detection mix was prepared by combining the LANCE Eu-W8044 labeled streptavidin and. Biotin-cAMP in detection buffer according to the manufacturers protocol. […] Curve fitting of the percent effect data versus the log of compound concentration used a 4-parameter concentration response curve fitting algorithm to calculate IC50 values.
# [2] = target: human A2a adenosine receptor (Homo sapiens (Human), UniProt P29274); assay: A2a receptor affinity radioligand binding assay ([3H] SCH58261, membranes from HEK293 or CHO cells); conditions: unstarred values: radioligand binding
# Procedure, shortened: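 Displacement of tritiated SCH58261 (working dilution 4 nM) from recombinant human A2a receptor membranes (HEK293 or CHO), 60 min at room temperature in Tris pH 7.4/MgCl2 buffer after 15–30 min compound preincubation. Scintillation counting after filtration; normalized percent effect fitted 4-parameter logistic for IC50.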
# Sequence of human A2b adenosine receptor (P29275 whole entry): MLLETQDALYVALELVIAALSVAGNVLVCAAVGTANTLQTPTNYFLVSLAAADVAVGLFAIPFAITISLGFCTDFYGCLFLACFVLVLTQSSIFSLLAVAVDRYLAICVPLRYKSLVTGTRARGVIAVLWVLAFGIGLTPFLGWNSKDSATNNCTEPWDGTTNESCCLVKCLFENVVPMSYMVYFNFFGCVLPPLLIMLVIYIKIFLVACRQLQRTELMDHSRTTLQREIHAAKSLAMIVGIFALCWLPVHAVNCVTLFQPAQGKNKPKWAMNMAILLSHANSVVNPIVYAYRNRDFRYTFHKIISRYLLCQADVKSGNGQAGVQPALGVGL
# Sequence of human A2a adenosine receptor (P29274 whole entry): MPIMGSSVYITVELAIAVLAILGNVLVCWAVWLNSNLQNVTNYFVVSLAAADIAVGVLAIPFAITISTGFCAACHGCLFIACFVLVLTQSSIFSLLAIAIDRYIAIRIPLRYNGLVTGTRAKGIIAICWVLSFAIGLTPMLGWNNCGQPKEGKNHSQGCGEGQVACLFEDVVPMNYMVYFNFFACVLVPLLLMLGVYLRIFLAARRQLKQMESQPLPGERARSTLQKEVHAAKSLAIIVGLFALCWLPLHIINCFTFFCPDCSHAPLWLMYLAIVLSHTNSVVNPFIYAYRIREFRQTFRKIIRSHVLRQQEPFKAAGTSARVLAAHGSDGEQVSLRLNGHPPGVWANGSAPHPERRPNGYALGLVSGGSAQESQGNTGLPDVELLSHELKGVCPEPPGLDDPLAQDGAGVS
Compound,IC50 [1] [µM],IC50 [2] [µM],*A2B cAMP % inh. @ 10000 nM [1] [% inh. @ 10000 nM*]
"COc1cccc2c1nc(N)n1nc(C3CCC(C)N(c4cnn(CC(F)(F)F)c4)C3)nc21 (single isomer, unassigned) [Example 142B, 7-methoxy-2-((3R,6R or 3S,6S)-6-methyl-1-(1-(2,2,2-trifluoroethyl)-1H-pyrazol-4-yl)piperidin-3-yl)-[1,2,4]triazolo[1,5-c]quinazolin-5-amine]",1.15,0.0008,–
"COc1cccc2c1nc(N)n1nc(C3CCC(C)N(c4cnn(CC(F)(F)F)c4)C3)nc21 (single isomer, unassigned) [Example 142D]",0.0093,0.0009,–
"COc1cccc2c1nc(N)n1nc(C3CCC(C)N(c4cnn(CC(C)(C)O)c4)C3)nc21 (single isomer, unassigned) [Example 143B, 1-(4-((2S,5S or 2R,5R)-5-(5-amino-7-methoxy-[1,2,4]triazolo[1,5-c]quinazolin-2-yl)-2-methylpiperidin-1-yl)-1H-pyrazol-1-yl)-2-methylpropan-2-ol]",0.604,0.0009,–
"COc1cccc2c1nc(N)n1nc(C3CCC(C)N(c4cnn(CC(C)(C)O)c4)C3)nc21 (single isomer, unassigned) [Example 143C]",0.651,0.0316,–
"COc1cccc2c1nc(N)n1nc(C3CCC(C)N(c4cnn(CC5(O)CCC5)c4)C3)nc21 (single isomer, unassigned) [Example 144D]",0.004,0.0012,–
"COc1cccc2c1nc(N)n1nc(C3CN(c4cnn(C5CC5)c4)CC(F)(F)C3)nc21 (single isomer, unassigned) [Example 154A]",0.386,0.0008,–
"COc1cccc2c1nc(N)n1nc(C3CN(c4cnn(C5CC5)c4)CC(F)(F)C3)nc21 (single isomer, unassigned) [Example 154B]",–,0.0174,13
"COc1cccc2c1nc(N)n1nc(C3CN(c4cnn(CC(F)(F)F)c4)CC(F)(F)C3)nc21 (single isomer, unassigned) [Example 155A]",1.33,0.0121,–
"COc1cccc2c1nc(N)n1nc(C3CN(c4cnn(CC(F)(F)F)c4)CC(F)(F)C3)nc21 (single isomer, unassigned) [Example 155B]",0.301,0.0007,–
"COc1cccc2c1nc(N)n1nc(C3CN(c4cnn(CC(C)(C)O)c4)CC(F)(F)C3)nc21 (single isomer, unassigned) [Example 156B, (R or S)-1-(4-(5-(5-amino-7-methoxy-[1,2,4]triazolo[1,5-c]quinazolin-2-yl)-3,3-difluoropiperidin-1-yl)-1H-pyrazol-1-yl)-2-methylpropan-2-ol]",1.39,0.0022,–
"CC[C@@H]1CC[C@H](c2nc3c4cccc(OC)c4nc(N)n3n2)CN1c1cnn(CC(C)(C)O)c1 (single isomer, unassigned) [Example 216D]",0.491,0.0024,–
"COc1ccc2c(c1)nc(N)n1nc([C@H]3C[C@H](C(F)(F)F)CN(c4cnn(CC(C)(C)O)c4)C3)nc21 (single isomer, unassigned) [Example 218A, 1-(4-((3S,5S or 3R,5R)-3-(5-amino-8-methoxy-[1,2,4]triazolo[1,5-c]quinazolin-2-yl)-5-(trifluoromethyl)piperidin-1-yl)-1H-pyrazol-1-yl)-2-methylpropan-2-ol]",–,0.0507,9
"COc1ccc2c(c1)nc(N)n1nc([C@@H]3C[C@H](C)CN(c4cnn(C(C)(C)CO)c4)C3)nc21 (single isomer, unassigned) [Example 222A]",0.815,0.00132,–
"COc1cccc2c1nc(N)n1nc([C@@H]3CCCN(c4cnn(C)c4C(F)(F)F)C3)nc21 [Example 2, (R)-7-methoxy-2-(1-(1-methyl-5-(trifluoromethyl)-1H-pyrazol-4-yl)piperidin-3-yl)-[1,2,4]triazolo[1,5-c]quinazolin-5-amine]",0.763,0.001,–
"COc1cccc2c1nc(N)n1nc([C@@H]3CCCN(c4cnn(C(F)F)c4)C3)nc21 [Example 3, (R)-2-(1-(1-(difluoromethyl)-1H-pyrazol-4-yl)piperidin-3-yl)-7-methoxy-[1,2,4]triazolo[1,5-c]quinazolin-5-amine]",0.0426,0.0013,–
"CCn1cc(N2CCC[C@@H](c3nc4c5cccc(OC)c5nc(N)n4n3)C2)cn1 [Example 4, (R)-2-(1-(1-ethyl-1H-pyrazol-4-yl)piperidin-3-yl)-7-methoxy-[1,2,4]triazolo[1,5-c]quinazolin-5-amine]",0.0495,0.0014,–

Compound,IC50 [1] [µM],IC50 [2] [µM],*A2B cAMP % inh. @ 10000 nM [1] [% inh. @ 10000 nM*]
"COc1cccc2c1nc(N)n1nc([C@@H]3CCCN(c4cnn(C(C)C)c4)C3)nc21 [Example 5, (R)-2-(1-(1-isopropyl-1H-pyrazol-4-yl)piperidin-3-yl)-7-methoxy-[1,2,4]triazolo[1,5-c]quinazolin-5-amine]",0.0395,0.0024,–
"COc1cccc2c1nc(N)n1nc([C@@H]3CCCN(c4cnn(C(C)(C)C)c4)C3)nc21 [Example 6, (R)-2-(1-(1-(tert-butyl)-1H-pyrazol-4-yl)piperidin-3-yl)-7-methoxy-[1,2,4]triazolo[1,5-c]quinazolin-5-amine]",0.03,0.0013,–
"COc1cccc2c1nc(N)n1nc([C@@H]3CCCN(c4cnn(C5CC5)c4)C3)nc21 [Example 7, (R)-2-(1-(1-cyclopropyl-1H-pyrazol-4-yl)piperidin-3-yl)-7-methoxy-[1,2,4]triazolo[1,5-c]quinazolin-5-amine]",0.0385,0.0014,–
"COc1cccc2c1nc(N)n1nc([C@@H]3CCCN(c4cnn(CC5CCC5)c4)C3)nc21 [Example 8, (R)-2-(1-(1-(cyclobutylmethyl)-1H-pyrazol-4-yl)piperidin-3-yl)-7-methoxy-[1,2,4]triazolo[1,5-c]quinazolin-5-amine]",0.211,0.0014,–
"COc1cccc2c1nc(N)n1nc([C@@H]3CCCN(c4cnn(C)c4C)C3)nc21 [Example 10, (R)-2-(1-(1,5-dimethyl-1H-pyrazol-4-yl)pipiperidin-3-yl)-7-methoxy-[1,2,4]triazolo[1,5-c]quinazolin-5-amine]",0.252,0.0015,–
"COc1cccc2c1nc(N)n1nc([C@@H]3CCCN(c4c(C)nn(C)c4C)C3)nc21 [Example 11, (R)-7-methoxy-2-(1-(1,3,5-trimethyl-1H-pyrazol-4-yl)piperidin-3-yl)-[1,2,4]triazolo[1,5-c]quinazolin-5-amine]",3.7,0.0008,–
"COc1cccc2c1nc(N)n1nc([C@@H]3CCCN(c4cnn5ncccc45)C3)nc21 [Example 12, (R)-7-methoxy-2-(1-(pyrazolo[1,5-b]pyridazin-3-yl)-piperidin-3-yl)-[1,2,4]triazolo[1,5-c]quinazolin-5-amine]",0.104,0.0006,–
"COc1cccc2c1nc(N)n1nc([C@@H]3CCCN(c4cnn5c4CCC5)C3)nc21 [Example 13, (R)-2-(1-(5,6-dihydro-4H-pyrrolo[1,2-b]pyrazol-3-yl)piperidin-3-yl)-7-methoxy-[1,2,4]triazolo[1,5-c]quinazolin-5-amine]",0.112,0.0009,–
"COc1cccc2c1nc(N)n1nc([C@@H]3CCCN(c4cnn(CCF)c4)C3)nc21 [Example 14, (R)-2-(1-(1-(2-fluoroethyl)-1H-pyrazol-4-yl)piperidin-3-yl)-7-methoxy-[1,2,4]triazolo[1,5-c]quinazolin-5-amine]",0.031,0.0007,–
"CCn1ncc(N2CCC[C@@H](c3nc4c5cccc(OC)c5nc(N)n4n3)C2)c1C [Example 15, (R)-2-(1-(1-ethyl-5-methyl-1H-pyrazol-4-yl)piperidin-3-yl)-7-methoxy-[1,2,4]triazolo[1,5-c]quinazolin-5-amine]",0.147,0.0005,–
"COc1cccc2c1nc(N)n1nc([C@@H]3CCCN(c4cnn(CC5CC5)c4)C3)nc21 [Example 16, (R)-2-(1-(1-(cyclopropylmethyl)-1H-pyrazol-4-yl)piperidin-3-yl)-7-methoxy-[1,2,4]triazolo[1,5-c]quinazolin-5-amine]",0.0928,0.0008,–
"COc1cccc2c1nc(N)n1nc([C@@H]3CCCN(c4cnn(C5CCC5)c4)C3)nc21 [Example 18, (R)-2-(1-(1-cyclobutyl-1H-pyrazol-4-yl)piperidin-3-yl)-7-methoxy-[1,2,4]triazolo[1,5-c]quinazolin-5-amine]",0.0464,0.001,–
"COc1cccc2c1nc(N)n1nc([C@@H]3CCCN(c4cnn5c(C)cccc45)C3)nc21 [Example 19, (R)-7-methoxy-2-(1-(7-methylpyrazolo[1,5-a]pyridin-3-yl)piperidin-3-yl)-[1,2,4]triazolo[1,5-c]quinazolin-5-amine]",0.0709,0.0013,–
"COc1cccc2c1nc(N)n1nc([C@@H]3CCCN(c4cnn(CC(C)(C)OC)c4)C3)nc21 [Example 22, (R)-7-methoxy-2-(1-(1-(2-methoxy-2-methylpropyl)-1H-pyrazol-4-yl)piperidin-3-yl)-[1,2,4]triazolo[1,5-c]quinazolin-5-amine]",0.102,0.0016,–
"COc1cccc2c1nc(N)n1nc([C@@H]3CCCN(c4cnn([C@@H]5CCC[C@H](O)[C@@]5(C)O)c4)C3)nc21 [Example 27, (1S,2S,6R)-6-(4-((R)-3-(5-amino-7-methoxy-[1,2,4]triazolo[1,5-c]quinazolin-2-yl)piperidin-1-yl)-1H-pyrazol-1-yl)-1-methylcyclohexane-1,2-diol]",0.0403,0.002,–
